Assay results reported in patent US10821115B2, “Compounds that inhibit Mcl-1 protein” (priority 2017, dated 2020).
Like-named read-outs stand apart in the source and are kept apart here.

Assays:
[1] = target: recombinant human Mcl-1 (residues 171-327) / Bim interaction (Homo sapiens (Human), UniProt Q07820); assay: biochemical; format: binding; details: TR-FRET, Mcl-1(171-327) / biotin-Bim (51-76); read-out: Mcl-1 HTRF IC50
[2] = system: human multiple myeloma cell line, OPM-2; assay: Cell viability assay (OPM-2 10 FBS), CellTiter-Glo; format: cell-based
In short: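 Serially diluted test compounds are incubated 16 h with cells (3000/well) in RPMI 1640 supplemented with 10% FBS. Viability is then measured by luminescence and IC50 calculated by 4-parameter logistic fit.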

[3] = read-out: OPM-2 10% FBS IC50 IP, OPM-2 cells, 10% FBS, 16 h, CellTiter-Glo
[4] = Homo sapiens, OPM-2, 16 h, read-out: OPM-2 10% FBS IC50 IP, OPM-2 cells, 10% FBS, 16 h, CellTiter-Glo

Chain of recombinant human Mcl-1 (residues 171-327) / Bim interaction (Q07820 171-327): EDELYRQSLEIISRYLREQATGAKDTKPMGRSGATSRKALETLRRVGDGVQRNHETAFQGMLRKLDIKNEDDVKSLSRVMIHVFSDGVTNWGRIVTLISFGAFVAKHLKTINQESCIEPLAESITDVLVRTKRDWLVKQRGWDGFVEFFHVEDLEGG

Row | Structure (SMILES) | IC50 [1] [nM] | IC50 [2, 3] [nM] | IC50 [2, 4] [nM]
1 | C=CC[C@]1(O)CCC[C@H](C)[C@@H](C)S(=O)(=O)NC(=O)c2ccc3c(c2)N(C[C@@H]2CC[C@H]21)C[C@@]1(CCCc2cc(Cl)ccc21)CO3 (single isomer, unassigned) [Example 100273] | 5.66 | 8660 | 
2 | C[C@@H]1[C@@H](C)C/C=C/[C@](O)(c2ncccn2)[C@@H]2CC[C@H]2CN2C[C@@]3(CCCc4cc(Cl)ccc43)COc3ccc(cc32)C(=O)NS1(=O)=O (single isomer, unassigned) [Example 100274] | 0.377 |  | 543
3 | C[C@@H]1[C@@H](C)C/C=C/[C@@](CC(=O)N(C)C)(OCCN2CCOCC2)[C@@H]2CC[C@H]2CN2C[C@@]3(CCCc4cc(Cl)ccc43)COc3ccc(cc32)C(=O)NS1(=O)=O (single isomer, unassigned) [Example 100310] | 0.152 |  | 120
4 | C[C@@H]1[C@@H](C)C/C=C/[C@](O)(c2cccnc2F)[C@@H]2CC[C@H]2CN2C[C@@]3(CCCc4cc(Cl)ccc43)COc3ccc(cc32)C(=O)NS1(=O)=O (single isomer, unassigned) [Example 100313] | 0.129 | 143 | 
5 | C[C@@H]1[C@@H](C)C/C=C/[C@](O)(c2cccnc2F)[C@@H]2CC[C@H]2CN2C[C@@]3(CCCc4cc(Cl)ccc43)COc3ccc(cc32)C(=O)NS1(=O)=O (single isomer, unassigned) [Example 100314] | 2.93 | 2290 | 
6 | CO[C@@]1(CC(=O)N2CC[C@@H](N(C)C)C2)/C=C/C[C@H](C)[C@@H](C)S(=O)(=O)NC(=O)c2ccc3c(c2)N(C[C@@H]2CC[C@H]21)C[C@@]1(CCCc2cc(Cl)ccc21)CO3 (single isomer, unassigned) [Example 100318] | 0.095 |  | 114
7 | C[C@@H]1[C@@H](C)CCC[C@](O)(Cc2ccccc2)[C@@H]2CC[C@H]2CN2C[C@@]3(CCCc4cc(Cl)ccc43)COc3ccc(cc32)C(=O)NS1(=O)=O (single isomer, unassigned) [Example 100319] | 0.126 |  | 506
8 | COc1ncccc1[C@@]1(O)/C=C/C[C@H](C)[C@@H](C)S(=O)(=O)NC(=O)c2ccc3c(c2)N(C[C@@H]2CC[C@H]21)C[C@@]1(CCCc2cc(Cl)ccc21)CO3 (single isomer, unassigned) [Example 100333] | 2.1 |  | 2170
9 | COc1ncccc1[C@@]1(O)/C=C/C[C@H](C)[C@@H](C)S(=O)(=O)NC(=O)c2ccc3c(c2)N(C[C@@H]2CC[C@H]21)C[C@@]1(CCCc2cc(Cl)ccc21)CO3 (single isomer, unassigned) [Example 100334] | 3.27 | 1470 | 
10 | CO[C@@]1(c2cccc(F)n2)/C=C/C[C@H](C)[C@@H](C)S(=O)(=O)NC(=O)c2ccc3c(c2)N(C[C@@H]2CC[C@H]21)C[C@@]1(CCCc2cc(Cl)ccc21)CO3 (single isomer, unassigned) [Example 100339] | 0.186 |  | 1380
11 | C[C@@H]1[C@@H](C)C/C=C/[C@@](O)(c2cccnn2)[C@@H]2CC[C@H]2CN2C[C@@]3(CCCc4cc(Cl)ccc43)COc3ccc(cc32)C(=O)NS1(=O)=O (single isomer, unassigned) [Example 100348] | 0.135 |  | 125
12 | C[C@@H]1[C@@H](C)C/C=C/[C@@](O)(c2ccncn2)[C@@H]2CC[C@H]2CN2C[C@@]3(CCCc4cc(Cl)ccc43)COc3ccc(cc32)C(=O)NS1(=O)=O (single isomer, unassigned) [Example 100360] | 0.848 |  | 1230
13 | COc1ccc([C@@]2(O)/C=C/C[C@H](C)[C@@H](C)S(=O)(=O)NC(=O)c3ccc4c(c3)N(C[C@@H]3CC[C@H]32)C[C@@]2(CCCc3cc(Cl)ccc32)CO4)cn1 (single isomer, unassigned) [Example 100362] | 0.888 |  | 2100
14 | CO[C@@]1(C[C@@H](O)C(C)C)/C=C/C[C@H](C)[C@@H](C)S(=O)(=O)NC(=O)c2ccc3c(c2)N(C[C@@H]2CC[C@H]21)C[C@@]1(CCCc2cc(Cl)ccc21)CO3 (single isomer, unassigned) [Example 100366] | 0.198 | 168 | 
15 | CO[C@@]1(C[C@@H](O)C(C)C)/C=C/C[C@H](C)[C@@H](C)S(=O)(=O)NC(=O)c2ccc3c(c2)N(C[C@@H]2CC[C@H]21)C[C@@]1(CCCc2cc(Cl)ccc21)CO3 (single isomer, unassigned) [Example 100367] | 0.371 | 604 | 
16 | C[C@@H]1[C@@H](C)C/C=C/[C@@](O)(c2ccncc2F)[C@@H]2CC[C@H]2CN2C[C@@]3(CCCc4cc(Cl)ccc43)COc3ccc(cc32)C(=O)NS1(=O)=O (single isomer, unassigned) [Example 100370] | 0.153 |  | 258
17 | CO[C@@]1(c2cnccn2)/C=C/C[C@H](C)[C@@H](C)S(=O)(=O)NC(=O)c2ccc3c(c2)N(C[C@@H]2CC[C@H]21)C[C@@]1(CCCc2cc(Cl)ccc21)CO3 (single isomer, unassigned) [Example 100379] | 0.06 |  | 71
18 | C[C@@H]1[C@@H](C)C/C=C/[C@@](O)(c2ncccc2F)[C@@H]2CC[C@H]2CN2C[C@@]3(CCCc4cc(Cl)ccc43)COc3ccc(cc32)C(=O)NS1(=O)=O (single isomer, unassigned) [Example 100390] | 0.186 |  | 649
19 | C[C@@H]1[C@@H](C)C/C=C/[C@@](O)(c2ccncc2)[C@@H]2CC[C@H]2CN2C[C@@]3(CCCc4cc(Cl)ccc43)COc3ccc(cc32)C(=O)NS1(=O)=O (single isomer, unassigned) [Example 100392] | 0.112 |  | 129
20 | C[C@@H]1[C@@H](C)CCC[C@@](O)(C[C@H]2CCCN(C)C2)[C@@H]2CC[C@H]2CN2C[C@@]3(CCCc4cc(Cl)ccc43)COc3ccc(cc32)C(=O)NS1(=O)=O (single isomer, unassigned) [Example 100398] | 0.618 |  | 457
21 | C[C@@H]1[C@@H](C)CCC[C@](O)(C[C@H]2CCCN(C)C2)[C@@H]2CC[C@H]2CN2C[C@@]3(CCCc4cc(Cl)ccc43)COc3ccc(cc32)C(=O)NS1(=O)=O (single isomer, unassigned) [Example 100399] | 0.28 |  | 2810
22 | C[C@@H]1[C@@H](C)CCC[C@](O)(C[C@@H]2CCCN(C)C2)[C@@H]2CC[C@H]2CN2C[C@@]3(CCCc4cc(Cl)ccc43)COc3ccc(cc32)C(=O)NS1(=O)=O (single isomer, unassigned) [Example 100400] | 0.838 |  | 1320
23 | C[C@@H]1[C@@H](C)C/C=C/[C@@](O)(c2ccc(F)cn2)[C@@H]2CC[C@H]2CN2C[C@@]3(CCCc4cc(Cl)ccc43)COc3ccc(cc32)C(=O)NS1(=O)=O (single isomer, unassigned) [Example 100402] | 0.098 |  | 133
24 | Cc1ccc([C@]2(O)/C=C/C[C@H](C)[C@@H](C)S(=O)(=O)NC(=O)c3ccc4c(c3)N(C[C@@H]3CC[C@H]32)C[C@@]2(CCCc3cc(Cl)ccc32)CO4)cn1 (single isomer, unassigned) [Example 100408] | 1.35 |  | 5620
25 | C[C@@H]1[C@@H](C)C/C=C/[C@@](O)(c2cncnc2)[C@@H]2CC[C@H]2CN2C[C@@]3(CCCc4cc(Cl)ccc43)COc3ccc(cc32)C(=O)NS1(=O)=O (single isomer, unassigned) [Example 100434] | 0.162 |  | 482
